Results on 3 compounds are retold here after paper PMC4448979 (Pharmacology Research & Perspectives, 2015).

Molecules are shown by their SMILES.

Common to all, as to format: cell-based
The target in test [1] is T1, human P2X7 receptor (HEK-hP2X7) (Homo sapiens, UniProt Q99572).
T1 sequence (Q99572 1-595): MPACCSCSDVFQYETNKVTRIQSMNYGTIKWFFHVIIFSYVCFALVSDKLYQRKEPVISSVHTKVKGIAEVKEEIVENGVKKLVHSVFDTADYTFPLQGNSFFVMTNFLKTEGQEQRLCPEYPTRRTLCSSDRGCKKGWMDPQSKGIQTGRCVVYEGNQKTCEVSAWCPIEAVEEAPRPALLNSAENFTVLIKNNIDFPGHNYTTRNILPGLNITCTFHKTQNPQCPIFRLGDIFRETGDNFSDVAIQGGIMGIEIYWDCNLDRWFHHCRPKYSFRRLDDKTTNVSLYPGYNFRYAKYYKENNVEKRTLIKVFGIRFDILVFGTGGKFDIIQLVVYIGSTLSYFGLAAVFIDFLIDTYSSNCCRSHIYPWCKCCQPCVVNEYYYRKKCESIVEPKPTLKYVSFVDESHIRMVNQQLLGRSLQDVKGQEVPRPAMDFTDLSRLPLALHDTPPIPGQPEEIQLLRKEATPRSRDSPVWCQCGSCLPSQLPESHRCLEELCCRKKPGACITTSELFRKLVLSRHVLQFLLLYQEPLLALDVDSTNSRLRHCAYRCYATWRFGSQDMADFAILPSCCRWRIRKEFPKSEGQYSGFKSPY
Description: YoPro1 dye uptake, fluorescence plate reader. The conditions noted are these: agonist; HEK-hP2X7 cells.

A further test addresses T2, human P2X4 (1321N1) (Homo sapiens, UniProt Q99571).
T2 sequence (Q99571 1-388): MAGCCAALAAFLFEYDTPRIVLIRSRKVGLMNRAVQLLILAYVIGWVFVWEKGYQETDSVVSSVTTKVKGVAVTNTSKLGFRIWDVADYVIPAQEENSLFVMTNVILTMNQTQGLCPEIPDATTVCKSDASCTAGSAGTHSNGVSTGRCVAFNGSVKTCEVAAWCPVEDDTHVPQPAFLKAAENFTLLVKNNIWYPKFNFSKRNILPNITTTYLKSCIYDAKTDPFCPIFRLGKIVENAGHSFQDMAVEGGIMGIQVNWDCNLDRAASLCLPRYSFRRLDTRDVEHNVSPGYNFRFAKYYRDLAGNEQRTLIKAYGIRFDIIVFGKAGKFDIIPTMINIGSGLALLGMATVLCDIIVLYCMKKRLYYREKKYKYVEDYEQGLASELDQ
Briefly: Fluo-4 calcium flux, fluorescence plate reader. The settings on record: 1321-N1, read-out: decrease in remaining activity at 10 μmol/L.

In test [2] the target is T1, human P2X7 receptor (HEK-hP2X7). Description: YoPro1 dye uptake, fluorescence plate reader.
In test [3] the target is T3, P2X7 receptor of mouse microglia BV2 cells (Mus musculus, UniProt Q9Z1M0).
T3 sequence (Q9Z1M0 1-595): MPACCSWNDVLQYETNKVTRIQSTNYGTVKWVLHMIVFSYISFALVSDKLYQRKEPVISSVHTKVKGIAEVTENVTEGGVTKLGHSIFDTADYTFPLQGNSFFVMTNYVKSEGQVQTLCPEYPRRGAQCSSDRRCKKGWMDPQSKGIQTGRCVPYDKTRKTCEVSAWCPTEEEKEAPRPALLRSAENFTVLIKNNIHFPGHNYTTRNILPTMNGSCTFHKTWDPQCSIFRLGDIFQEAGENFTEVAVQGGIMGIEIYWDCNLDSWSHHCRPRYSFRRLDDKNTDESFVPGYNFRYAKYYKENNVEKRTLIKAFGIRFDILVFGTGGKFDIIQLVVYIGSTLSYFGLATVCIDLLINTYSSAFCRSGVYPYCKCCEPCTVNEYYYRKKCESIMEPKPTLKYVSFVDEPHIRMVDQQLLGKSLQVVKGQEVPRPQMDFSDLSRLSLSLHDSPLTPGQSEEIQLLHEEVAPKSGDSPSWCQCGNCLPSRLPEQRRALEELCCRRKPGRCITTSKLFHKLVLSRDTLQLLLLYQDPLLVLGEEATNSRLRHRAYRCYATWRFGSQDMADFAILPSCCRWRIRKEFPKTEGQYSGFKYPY
Description: whole-cell patch clamp. The conditions noted are these: antagonist; 100 μmol/L BzATP; -70 mV, room temperature, pH 7.4. For orientation: In patch-clamp work, channel activity is measured electrically.

In test [4] the target is T1, human P2X7 receptor (HEK-hP2X7). Briefly: cytosensor, cell impedance.

As to `Nc1ncnc2c1ncn2[C@@H]1O[C@H](COP(=O)(O)OP(=O)(O)OP(=O)(O)O)[C@@H](O)[C@H]1O` [ATP], the “YoPro1 dye uptake, fluorescence plate reader” value in test [1] is listed as “confirmed using the YoPro1 uptake assay upon stimulation of the target cells with ATP”.
As a reminder, the IC50 is the point on the concentration scale where inhibition reaches its midpoint. The low end stands for greater potency, the high end for weaker potency. `O=C(NCC12CC3CC(CC(C3)C1)C2)c1cc(CCCNCCCO)ccc1Cl` [AZD9056]: the remaining activity at 10 µM on human P2X4 (1321N1) came to 27%. In addition, the IC50 is 11.2 nM in test [2] and 1000 to 3000 nM in test [3].
In general, EC50 refers to the concentration needed to bring the measured effect to its halfway point. The low end stands for a more potent agent, the high end for a less potent agent. On to `Nc1ncnc2c1ncn2[C@@H]1O[C@H](COP(=O)(O)OP(=O)(O)OP(=O)(O)O)[C@@H](OC(=O)c2ccc(C(=O)c3ccccc3)cc2)[C@H]1O` [BzATP, 2′, 3′–O–(4-benzoylbenzoyl)–ATP], for which a half-maximal response in test [4] (EC50) required 9600 ± 1800 nM.
